Experimental data from patent US9643980B2, “Benzoxazepin oxazolidinone compounds and methods of use” (Genentech, Inc., priority 2015, dated 2017).
Read-outs that look alike come from different tables or passages of the source.

Key:
[1] = biological target: PI3Kδ (Homo sapiens, UniProt O00329); assay: PI3K binding assay (lipid kinase reaction, ADP-Glo), PI3K delta; assay type: biochemical
Experimental: (§1) Reactions are carried out using the following conditions for each PI3K isoform as in Table 5.
(§2) All reactions are carried out at room temperature. […] The reaction is started by the addition of 2 μL ATP/MgCl2. The kinase reaction buffer contains 50 mM HEPES, 50 mM NaCl 3 mM MgCl2, 0.01% BSA, 1% DMSO, and enzyme and substrate concentrations as indicated in the above table. The reaction is stopped by the addition of 10 μL ADP-Glo reagent. Plates are read in a Perkin Elmer Envision system using luminescence mode. 10 point dose response curves are generated for each test compound. Ki values for each compound are determined using the Morrison Equation.

[2] = system: P-PRAS40 SW48(E545K); assay: Inhibition of P-PRAS40 in SW48 isogenic cells, PI3Kα mutant E545K; assay type: cell-based; details: for EC50: Homo sapiens
Experimental: (§3) All statistics were performed using KaleidaGraph Software (version 4.1.3). A Student t-Test was performed using unpaired data with equal variance to compare activity against mutant cells and wild-type cells. P<0.05 is considered to be significant.
(§4) The following assays are intended for determining the cellular potency and mutant selectivity of small molecule PI3Kα inhibitors. […] Mutant selectivity of PI3Kα inhibitors is determined by EC50 potency ratios in the WT vs. E545K cell lines and WT vs. H1047R cell lines.
(§5) The three cell lines (WT, E545K, and H1047R) are plated and assayed in parallel. The following day, test compounds are serially diluted in dimethyl sulfoxide (DMSO) and added to cells (final DMSO concentration 0.5%). […] Cell lysates are added to assay plates pre-coated with antibodies against phosphorylated PRAS40. Phosphorylated PRAS40 in samples are allowed to bind to the capture antibodies overnight at 4° C. The detection antibody (anti-total PRAS40, labeled with an electrochemiluminescent SULFO-TAG) is added to the bound lysate and incubated for 1 hour at room temperature. The MSD Read Buffer is added such that when a voltage is applied to the plate electrodes, the labels bound to the electrode surface emit light. The MSD Sector Instrument measures the intensity of the light, and quantitatively measures the amount of phosphor-PRAS40 in the sample. Percent inhibition of PRAS40 phosphorylation by varying concentrations of test compounds is calculated relative to untreated controls. EC50 values are calculated using the 4 parameter logistic nonlinear regression dose-response model.

[3] = system: P-PRAS40 SW48(H1047R); assay: Inhibition of P-PRAS40 in SW48 isogenic cells, PI3Kα mutant H1047R; assay type: cell-based; details: for EC50: Homo sapiens
Experimental: as §3, §4, §5

[4] = biological target: PI3Kγ (Homo sapiens, UniProt P48736); assay: PI3K binding assay (lipid kinase reaction, ADP-Glo), PI3K gamma; assay type: biochemical; details: Table 2A; first value of cell (ADP-Glo, Example 901)
Experimental: as §1, §2

[5] = biological target: PI3Kα (Homo sapiens, UniProt P42336); assay: PI3K binding assay (lipid kinase reaction, ADP-Glo), PI3K alpha; assay type: biochemical
Experimental: as §1, §2

[6] = biological target: PI3Kβ (Homo sapiens, UniProt P42338); assay: PI3K binding assay (lipid kinase reaction, ADP-Glo), PI3K beta; assay type: biochemical; details: Table 2A; first value of cell (ADP-Glo, Example 901)
Experimental: as §1, §2

[7] = system: P-PRAS40 SW48(parental); assay: Inhibition of P-PRAS40 in SW48 isogenic cells, PI3Kα wild-type (parental); details: Homo sapiens, SW48, 24 h
[8] = Table 2A, first value of cell (ADP-Glo, Example 901)
[9] = SW48, Table 3A, 24 hours of compound treatment, geometric mean, read-out: P-PRAS40 SW48(E545K) EC50
[10] = Table 3A, EC50 potency ratio, p value (Student t-Test) given
[11] = SW48, Table 3A, 24 hours of compound treatment, geometric mean, read-out: P-PRAS40 SW48(H1047R) EC50
[12] = Table 2A, first value of cell (ADP-Glo, Example 901), read-out: PI3Kα Ki
[13] = Table 2A, selectivity ratio (fold)
[14] = read-out: P-PRAS40 SW48(parental) EC50 (nM)
[15] = Table 2B comparator compounds, first value of cell (ADP-Glo)
[16] = read-out: P-PRAS40 SW48(parental) EC50 (μM)
[17] = SW48, Table 3B comparator compounds, 24 hours of compound treatment, read-out: P-PRAS40 SW48(E545K) EC50
[18] = SW48, Table 3B comparator compounds, 24 hours of compound treatment, read-out: P-PRAS40 SW48(H1047R) EC50

Chain of PI3Kδ (O00329 whole entry, canonical isoform): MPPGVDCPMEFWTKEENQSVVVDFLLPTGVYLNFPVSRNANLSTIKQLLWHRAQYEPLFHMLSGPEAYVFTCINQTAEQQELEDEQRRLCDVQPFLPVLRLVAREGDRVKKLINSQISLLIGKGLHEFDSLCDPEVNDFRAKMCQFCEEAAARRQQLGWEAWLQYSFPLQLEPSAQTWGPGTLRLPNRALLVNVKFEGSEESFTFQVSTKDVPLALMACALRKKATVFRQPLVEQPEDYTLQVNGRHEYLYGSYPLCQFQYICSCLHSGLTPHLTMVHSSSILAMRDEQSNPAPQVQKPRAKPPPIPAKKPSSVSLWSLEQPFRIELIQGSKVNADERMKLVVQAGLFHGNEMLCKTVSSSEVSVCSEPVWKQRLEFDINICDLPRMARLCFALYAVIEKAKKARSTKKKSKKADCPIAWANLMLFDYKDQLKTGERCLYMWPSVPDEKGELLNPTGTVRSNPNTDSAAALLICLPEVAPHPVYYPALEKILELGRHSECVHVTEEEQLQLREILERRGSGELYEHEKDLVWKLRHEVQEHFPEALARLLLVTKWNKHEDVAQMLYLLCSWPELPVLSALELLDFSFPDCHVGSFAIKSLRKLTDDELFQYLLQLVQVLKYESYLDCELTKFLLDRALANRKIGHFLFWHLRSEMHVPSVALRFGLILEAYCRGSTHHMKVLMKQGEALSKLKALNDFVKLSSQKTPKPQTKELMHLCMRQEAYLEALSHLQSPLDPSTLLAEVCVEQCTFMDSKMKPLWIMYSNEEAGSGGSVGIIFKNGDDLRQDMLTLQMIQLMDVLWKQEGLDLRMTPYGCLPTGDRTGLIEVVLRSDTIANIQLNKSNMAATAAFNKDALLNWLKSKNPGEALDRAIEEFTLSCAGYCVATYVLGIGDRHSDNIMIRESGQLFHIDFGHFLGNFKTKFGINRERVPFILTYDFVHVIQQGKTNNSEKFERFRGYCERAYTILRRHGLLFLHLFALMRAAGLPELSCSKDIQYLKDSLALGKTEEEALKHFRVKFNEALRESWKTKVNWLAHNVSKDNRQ
Chain of PI3Kδ (P27986 whole entry partner, canonical isoform): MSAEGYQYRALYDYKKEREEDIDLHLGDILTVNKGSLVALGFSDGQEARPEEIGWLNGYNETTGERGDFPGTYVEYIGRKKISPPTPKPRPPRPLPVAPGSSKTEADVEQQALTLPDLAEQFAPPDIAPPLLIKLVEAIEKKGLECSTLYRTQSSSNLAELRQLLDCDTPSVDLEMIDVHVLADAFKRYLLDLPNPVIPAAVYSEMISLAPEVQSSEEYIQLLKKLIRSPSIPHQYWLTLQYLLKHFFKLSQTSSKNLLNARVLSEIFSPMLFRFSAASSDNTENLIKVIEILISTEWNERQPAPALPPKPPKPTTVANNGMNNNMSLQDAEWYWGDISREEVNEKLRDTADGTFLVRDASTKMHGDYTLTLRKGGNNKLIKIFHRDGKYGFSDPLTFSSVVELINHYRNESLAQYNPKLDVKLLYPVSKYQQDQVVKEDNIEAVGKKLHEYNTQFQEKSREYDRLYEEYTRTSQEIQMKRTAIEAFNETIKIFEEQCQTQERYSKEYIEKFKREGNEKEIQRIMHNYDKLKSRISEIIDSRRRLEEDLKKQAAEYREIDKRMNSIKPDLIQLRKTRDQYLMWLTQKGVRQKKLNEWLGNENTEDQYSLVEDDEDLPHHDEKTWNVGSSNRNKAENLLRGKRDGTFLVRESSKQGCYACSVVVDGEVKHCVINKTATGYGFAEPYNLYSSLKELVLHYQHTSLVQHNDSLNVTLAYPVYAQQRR
Chain of PI3Kγ (P48736 whole entry): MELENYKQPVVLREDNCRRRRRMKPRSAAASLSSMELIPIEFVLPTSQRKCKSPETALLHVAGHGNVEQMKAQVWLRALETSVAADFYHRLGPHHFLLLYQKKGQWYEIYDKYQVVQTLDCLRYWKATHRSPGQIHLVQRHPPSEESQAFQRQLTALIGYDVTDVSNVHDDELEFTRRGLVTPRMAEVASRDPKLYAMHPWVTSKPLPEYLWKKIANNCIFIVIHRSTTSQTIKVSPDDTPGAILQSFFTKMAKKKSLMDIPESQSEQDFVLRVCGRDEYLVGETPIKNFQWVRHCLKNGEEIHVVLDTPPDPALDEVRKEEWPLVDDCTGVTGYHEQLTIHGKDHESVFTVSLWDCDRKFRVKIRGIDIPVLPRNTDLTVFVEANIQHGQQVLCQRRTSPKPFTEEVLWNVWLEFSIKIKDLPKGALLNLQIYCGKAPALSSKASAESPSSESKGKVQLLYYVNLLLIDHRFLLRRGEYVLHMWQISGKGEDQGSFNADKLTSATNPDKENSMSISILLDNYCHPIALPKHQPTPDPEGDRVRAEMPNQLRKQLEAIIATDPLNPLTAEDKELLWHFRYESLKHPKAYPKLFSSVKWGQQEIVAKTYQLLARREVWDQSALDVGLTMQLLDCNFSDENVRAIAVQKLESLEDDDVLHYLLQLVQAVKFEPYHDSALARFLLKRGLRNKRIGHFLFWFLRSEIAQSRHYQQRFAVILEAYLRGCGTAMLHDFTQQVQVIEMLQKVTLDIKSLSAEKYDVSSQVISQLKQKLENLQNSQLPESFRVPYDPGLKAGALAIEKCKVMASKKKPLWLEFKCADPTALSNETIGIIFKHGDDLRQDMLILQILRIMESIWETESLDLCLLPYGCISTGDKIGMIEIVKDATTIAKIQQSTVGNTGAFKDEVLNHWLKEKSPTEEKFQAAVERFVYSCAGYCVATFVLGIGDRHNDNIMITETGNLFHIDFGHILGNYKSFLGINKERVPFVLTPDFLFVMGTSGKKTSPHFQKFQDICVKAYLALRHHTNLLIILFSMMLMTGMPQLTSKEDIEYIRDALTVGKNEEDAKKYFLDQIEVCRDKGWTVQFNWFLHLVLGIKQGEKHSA
Chain of PI3Kα (P42336 whole entry): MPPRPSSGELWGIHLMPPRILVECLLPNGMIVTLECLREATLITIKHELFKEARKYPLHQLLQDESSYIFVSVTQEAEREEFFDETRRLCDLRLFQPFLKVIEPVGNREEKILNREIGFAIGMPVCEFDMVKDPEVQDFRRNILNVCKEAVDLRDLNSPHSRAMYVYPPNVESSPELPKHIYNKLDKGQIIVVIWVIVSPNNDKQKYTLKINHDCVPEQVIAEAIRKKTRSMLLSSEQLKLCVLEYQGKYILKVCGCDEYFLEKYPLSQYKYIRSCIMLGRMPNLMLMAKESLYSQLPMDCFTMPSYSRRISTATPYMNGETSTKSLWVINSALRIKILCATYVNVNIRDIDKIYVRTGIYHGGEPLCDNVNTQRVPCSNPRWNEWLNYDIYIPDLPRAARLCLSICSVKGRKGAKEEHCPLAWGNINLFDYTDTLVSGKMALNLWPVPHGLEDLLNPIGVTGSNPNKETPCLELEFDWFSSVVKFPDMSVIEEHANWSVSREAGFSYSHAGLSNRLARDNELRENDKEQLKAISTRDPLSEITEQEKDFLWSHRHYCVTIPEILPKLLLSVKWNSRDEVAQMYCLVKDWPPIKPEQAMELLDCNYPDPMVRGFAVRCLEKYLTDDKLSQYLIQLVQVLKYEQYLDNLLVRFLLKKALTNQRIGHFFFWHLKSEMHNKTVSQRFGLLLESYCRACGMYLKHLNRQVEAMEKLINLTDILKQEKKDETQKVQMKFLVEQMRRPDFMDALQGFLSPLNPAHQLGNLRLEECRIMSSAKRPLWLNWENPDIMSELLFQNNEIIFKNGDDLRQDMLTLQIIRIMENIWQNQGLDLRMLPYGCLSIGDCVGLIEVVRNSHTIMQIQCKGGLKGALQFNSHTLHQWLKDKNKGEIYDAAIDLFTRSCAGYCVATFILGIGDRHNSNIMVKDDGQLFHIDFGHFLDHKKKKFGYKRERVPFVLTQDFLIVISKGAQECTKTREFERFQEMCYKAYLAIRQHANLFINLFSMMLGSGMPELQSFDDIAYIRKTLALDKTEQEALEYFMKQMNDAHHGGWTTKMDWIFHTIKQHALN
Chain of PI3Kα (P27986 whole entry partner): as the sequence (P27986 whole entry partner, canonical isoform) above
Chain of PI3Kβ (P42338 whole entry): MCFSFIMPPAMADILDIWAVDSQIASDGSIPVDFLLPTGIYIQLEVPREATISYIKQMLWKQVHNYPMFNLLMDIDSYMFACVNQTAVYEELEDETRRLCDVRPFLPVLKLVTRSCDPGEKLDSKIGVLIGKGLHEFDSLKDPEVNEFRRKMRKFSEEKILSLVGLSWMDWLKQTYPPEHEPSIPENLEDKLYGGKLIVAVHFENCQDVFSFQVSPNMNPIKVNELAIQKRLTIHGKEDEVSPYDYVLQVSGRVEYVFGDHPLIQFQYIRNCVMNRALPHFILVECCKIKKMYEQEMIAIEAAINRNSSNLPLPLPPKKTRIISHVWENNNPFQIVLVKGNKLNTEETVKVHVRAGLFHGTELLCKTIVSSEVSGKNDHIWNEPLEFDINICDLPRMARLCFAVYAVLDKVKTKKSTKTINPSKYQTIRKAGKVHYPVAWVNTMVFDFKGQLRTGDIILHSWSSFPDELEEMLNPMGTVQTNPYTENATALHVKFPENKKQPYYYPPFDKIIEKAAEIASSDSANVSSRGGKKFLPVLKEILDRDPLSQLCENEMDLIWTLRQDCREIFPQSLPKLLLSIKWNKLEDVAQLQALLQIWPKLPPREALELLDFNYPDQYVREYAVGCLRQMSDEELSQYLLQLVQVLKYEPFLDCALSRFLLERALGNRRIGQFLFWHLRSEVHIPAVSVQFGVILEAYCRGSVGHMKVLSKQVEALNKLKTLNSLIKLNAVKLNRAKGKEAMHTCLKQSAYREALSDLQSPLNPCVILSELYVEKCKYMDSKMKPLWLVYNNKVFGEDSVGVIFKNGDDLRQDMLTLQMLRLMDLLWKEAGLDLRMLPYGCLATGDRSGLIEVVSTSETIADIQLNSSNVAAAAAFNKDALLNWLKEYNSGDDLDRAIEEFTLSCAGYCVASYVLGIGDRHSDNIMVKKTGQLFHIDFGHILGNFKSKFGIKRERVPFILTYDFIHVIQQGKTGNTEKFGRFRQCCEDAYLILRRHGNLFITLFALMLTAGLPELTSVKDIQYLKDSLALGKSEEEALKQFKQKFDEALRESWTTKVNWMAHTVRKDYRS
Chain of PI3Kβ (P27986 whole entry partner): as the sequence (P27986 whole entry partner, canonical isoform) above

| SMILES | Ki [1, 8] [nM] | EC50 [2, 9] [µM] | EC50 [3, 11] [µM] | Ki [4] [nM] | Ki [5, 12] [nM] | Selectivity for PI3Kα vs. PI3K-β [5, 13] | Selectivity for PI3Kα vs. PI3Kγ [5, 13] | Selectivity for PI3Kα vs. PI3Kδ [5, 13] | Ki [6] [nM] | Ki [1, 15] [nM] | Fold Selectivity for SW48(E545K) vs. SW48(parental) [2, 10] | Fold Selectivity for SW48(H1047R) vs. SW48(parental) [3, 10] | EC50 [7, 14] [nM] | EC50 [7, 16] [nM] | EC50 [2, 17] [µM] | EC50 [3, 18] [µM] | further results |
| --- | --- | --- | --- | --- | --- | --- | --- | --- | --- | --- | --- | --- | --- | --- | --- | --- | --- |
| NC(=O)[C@@H]1CCCN1c1ccc2c(c1)OCCn1cc(N3C(=O)OC[C@H]3CF)nc1-2 [Compound 108, (S)-1-(2-((S)-4-(Fluoromethyl)-2-oxooxazolidin-3-yl)-5,6-dihydrobenzo[f]imidazo[1,2-d][1,4]oxazepin-9-yl)pyrrolidine-2-carboxamide] | 1.97 | 0.0029 | 0.0026 | 23.9 | 0.043 | 1421 | 557 | 46 | 60.8 |  | 2.1 (p < 0.001)) | 2.2 (p < 0.001) | 6.2 |  |  |  |  |
| C[C@H](Oc1ccc2c(c1)OCCn1cc(-c3ncnn3CC(F)(F)F)nc1-2)C(N)=O [Compound 486, reference compound] |  |  |  |  |  |  |  |  |  | 2.5 |  |  |  | 6.2 | 0.0055 | 0.0059 | Fold Selectivity for SW48(E545K) vs. SW48(parental) ([2]; Table 3B, EC50 potency ratio): 1.1 (p = 0.44); Fold Selectivity for SW48(H1047R) vs. SW48(parental) ([3]; Table 3B, EC50 potency ratio): 1.0 (p = 0.74); Ki ([5]; Table 2B comparator compounds, first value of cell (ADP-Glo), read-out: PI3Kα Ki): 0.186 nM |
| CC(C)[C@@H]1COC(=O)N1c1cn2c(n1)-c1ccc(O[C@@H](C)C(N)=O)cc1OCC2 [Compound 101, (S)-2-((2-((R)-4-isopropyl-2-oxooxazolidin-3-yl)-5,6-dihydrobenzo[f]imidazo[1,2-d][1,4]oxazepin-9-yl)oxy)propanamide] | 18.7 | 0.0328 | 0.0322 | 72.8 | 0.803 | 488 | 91 | 23 | 392 |  | 2.1 (p < 0.001) | 2.1 (p < 0.001) | 68.2 |  |  |  |  |

Continued, in another order:

| Ki [1, 8] [nM] | EC50 [2, 9] [µM] | EC50 [3, 11] [µM] | Ki [4] [nM] | Ki [5, 12] [nM] | Selectivity for PI3Kα vs. PI3K-β [5, 13] | Selectivity for PI3Kα vs. PI3Kγ [5, 13] | Selectivity for PI3Kα vs. PI3Kδ [5, 13] | Ki [6] [nM] | Ki [1, 15] [nM] | SMILES | Fold Selectivity for SW48(E545K) vs. SW48(parental) [2, 10] | Fold Selectivity for SW48(H1047R) vs. SW48(parental) [3, 10] | EC50 [7, 14] [nM] | EC50 [7, 16] [nM] | EC50 [2, 17] [µM] | EC50 [3, 18] [µM] | further results |
| --- | --- | --- | --- | --- | --- | --- | --- | --- | --- | --- | --- | --- | --- | --- | --- | --- | --- |
|  |  |  |  |  |  |  |  |  | 0.354 | CC(C)n1ncnc1-c1cn2c(n1)-c1ccc(N3CCC[C@H]3C(N)=O)cc1OCC2 [Compound 375, reference compound] |  |  |  | 1.6 |  |  | Fold Selectivity for SW48(E545K) vs. SW48(parental) [2]: 1.4 (p = 0.23); EC50 ([2]; SW48, 24 h, read-out: P-PRAS40 SW48(E545K) EC50 (μM)): 0.0011 µM; Fold Selectivity for SW48(H1047R) vs. SW48(parental) [3]: 1.5 (p = 0.20); EC50 ([3]; SW48, 24 h, read-out: P-PRAS40 SW48(H1047R) EC50 (μM)): 0.001 µM; Ki [5]: 0.016 nM |
| 30.3 | 0.0332 | 0.028 | 126 | 0.993 |  |  |  | 376 |  | C[C@H](Oc1ccc2c(c1)OCCn1cc(N3C(=O)OC[C@H]3CF)nc1-2)C(N)=O [Compound 109, (S)-2-((2-((S)-4-(Fluoromethyl)-2-oxooxazolidin-3-yl)-5,6-dihydrobenzo[f]imidazo[1,2-d][1,4]oxazepin-9-yl)oxy)propanamide] | 2.2 (p = 0.002) | 2.6 (p < 0.001) | 74 |  |  |  | Selectivity for PI3Kα vs. PI3K-β [5]: 379; Selectivity for PI3Kα vs. PI3Kγ [5]: 127; Selectivity for PI3Kα vs. PI3Kδ [5]: 31 |
|  |  |  |  |  |  |  |  |  | 24.1 | C[C@H](Oc1ccc2c(c1)OCCn1cc(-c3ncnn3C)nc1-2)C(N)=O [Compound 540, reference compound] |  |  |  | 381 | 0.169 | 0.184 |  |
